Measured values taken from ChEMBL document CHEMBL1201862, “PubChem BioAssay data set” (2004).
Active and inactive are the calls of the source.

Tests used:
[1] = target: UDP-galactopyranose mutase (Mycobacterium tuberculosis, UniProt P9WIQ1); assay: Inhibitors of Mycobacterium tuberculosis UDP-galactopyranose mutase (UGM) enzyme Measured in Biochemical System Using Plate Reader - 2105-02_Inhibitor_Dose_CherryPick_Activity. [Related pubchem assays (depositor defined):AID504439]
HEK293 = assay: cells; type: functional, cell-based; conditions: Homo sapiens
[2] = target: T1, Nuclear receptor subfamily 0 group B member 1 (Homo sapiens, UniProt P51843); assay: Luminescence-based cell-based high throughput dose response assay for inhibitors of the orphan nuclear receptor subfamily 0, group B, member 1 (DAX1; NR0B1). [Related pubchem assays (depositor defined):AID504766, AID504790]; type: functional
T1 sequence (P51843 whole entry): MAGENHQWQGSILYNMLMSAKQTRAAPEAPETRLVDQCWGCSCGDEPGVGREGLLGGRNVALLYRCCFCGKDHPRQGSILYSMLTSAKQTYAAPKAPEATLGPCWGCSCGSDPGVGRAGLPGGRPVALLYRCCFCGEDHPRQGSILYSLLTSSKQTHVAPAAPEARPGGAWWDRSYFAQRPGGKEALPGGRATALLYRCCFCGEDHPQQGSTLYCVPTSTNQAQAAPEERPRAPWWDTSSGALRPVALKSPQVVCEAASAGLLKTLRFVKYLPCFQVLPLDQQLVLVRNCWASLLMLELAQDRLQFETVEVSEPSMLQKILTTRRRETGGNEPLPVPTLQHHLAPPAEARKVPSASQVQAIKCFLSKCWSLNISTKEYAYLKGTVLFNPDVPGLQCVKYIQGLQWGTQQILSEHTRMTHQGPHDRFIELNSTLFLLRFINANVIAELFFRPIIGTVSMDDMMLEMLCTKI

[3] = target: Glucose-6-phosphate 1-dehydrogenase (Homo sapiens, UniProt P11413); assay: human G6PD enzyme inhibitors, dose response, selectivity assay for P. falciparum G6PD inhibitor project, biochemical, fluorescence (AID 504792); type: functional
Chain of Glucose-6-phosphate 1-dehydrogenase (P11413 whole entry): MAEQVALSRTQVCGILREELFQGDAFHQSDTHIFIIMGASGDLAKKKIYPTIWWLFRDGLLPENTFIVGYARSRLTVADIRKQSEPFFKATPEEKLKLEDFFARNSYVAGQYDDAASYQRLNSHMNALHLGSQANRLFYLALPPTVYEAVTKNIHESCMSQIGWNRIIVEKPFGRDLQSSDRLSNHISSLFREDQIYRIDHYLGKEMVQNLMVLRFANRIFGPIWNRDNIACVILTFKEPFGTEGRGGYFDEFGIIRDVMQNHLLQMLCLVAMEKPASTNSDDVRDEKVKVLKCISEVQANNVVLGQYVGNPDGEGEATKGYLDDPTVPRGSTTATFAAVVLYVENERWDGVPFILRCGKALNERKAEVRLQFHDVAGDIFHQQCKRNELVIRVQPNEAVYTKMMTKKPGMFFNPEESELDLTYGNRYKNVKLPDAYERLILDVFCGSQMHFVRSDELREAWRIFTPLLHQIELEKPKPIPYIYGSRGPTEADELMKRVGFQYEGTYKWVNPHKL

Cytochrome P450 2C19 = Cytochrome P450 2C19 (Homo sapiens, UniProt P33261); assay: Cytochrome panel assay with activity outcomes. Panel member name: p450-cyp2c19 Compounds with AC50 equal or less than 10 uM are considered active; type: functional; conditions: read-out: AC50
Chain of Cytochrome P450 2C19 (P33261 whole entry, the tested form may be a part): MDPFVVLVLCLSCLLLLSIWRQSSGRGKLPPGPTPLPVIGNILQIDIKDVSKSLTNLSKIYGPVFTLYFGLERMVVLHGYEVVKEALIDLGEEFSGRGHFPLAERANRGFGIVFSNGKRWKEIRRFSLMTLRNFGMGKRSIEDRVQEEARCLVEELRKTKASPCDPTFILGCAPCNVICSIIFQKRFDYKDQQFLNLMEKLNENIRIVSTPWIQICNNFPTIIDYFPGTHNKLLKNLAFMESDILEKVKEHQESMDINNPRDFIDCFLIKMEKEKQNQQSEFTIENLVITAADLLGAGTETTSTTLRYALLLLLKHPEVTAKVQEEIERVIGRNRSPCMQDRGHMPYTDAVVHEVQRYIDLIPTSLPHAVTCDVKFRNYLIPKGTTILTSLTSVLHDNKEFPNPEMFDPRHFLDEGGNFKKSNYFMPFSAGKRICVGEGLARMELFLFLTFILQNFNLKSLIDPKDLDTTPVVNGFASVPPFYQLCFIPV

CHO = assay: cytotoxicity in TLR9-MyD88 CHO cells, dose response, cytotoxicity control for TLR9-MyD88 binding inhibitor project, cell-based, luminescence (AID 588339); type: functional, hamster; conditions: Cricetulus griseus;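 note: CHO cells stably coexpressing TLR9 and MyD88 fusions from primary screen; compound exposure lasted 48 hours before viability readout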
Beta Lactamase = Beta Lactamase (Pseudomonas aeruginosa, UniProt Q932Y6); assay: beta-lactamase reporter inhibitor potency, dose response, artefact control for TLR9-MyD88 binding inhibitor project, BLA reporter cells, FRET fluorescence (AID 588341); type: cell-based;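 note: cell based assay in CHO-K1 cells stably expressing beta-lactamase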
Chain of Beta Lactamase (Q932Y6 whole entry): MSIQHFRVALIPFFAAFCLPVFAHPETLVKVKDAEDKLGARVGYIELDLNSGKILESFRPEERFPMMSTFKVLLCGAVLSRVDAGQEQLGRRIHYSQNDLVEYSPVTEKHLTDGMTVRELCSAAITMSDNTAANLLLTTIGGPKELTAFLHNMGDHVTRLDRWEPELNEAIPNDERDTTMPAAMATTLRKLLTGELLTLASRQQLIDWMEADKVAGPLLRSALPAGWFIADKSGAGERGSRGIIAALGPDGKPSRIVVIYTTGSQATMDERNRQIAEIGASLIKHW

Cytochrome P450 3A4 = Cytochrome P450 3A4 (Homo sapiens, UniProt P08684);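 note: CYP3A4 tested as one member of a cytochrome P450 panel screen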
Chain of Cytochrome P450 3A4 (P08684 whole entry): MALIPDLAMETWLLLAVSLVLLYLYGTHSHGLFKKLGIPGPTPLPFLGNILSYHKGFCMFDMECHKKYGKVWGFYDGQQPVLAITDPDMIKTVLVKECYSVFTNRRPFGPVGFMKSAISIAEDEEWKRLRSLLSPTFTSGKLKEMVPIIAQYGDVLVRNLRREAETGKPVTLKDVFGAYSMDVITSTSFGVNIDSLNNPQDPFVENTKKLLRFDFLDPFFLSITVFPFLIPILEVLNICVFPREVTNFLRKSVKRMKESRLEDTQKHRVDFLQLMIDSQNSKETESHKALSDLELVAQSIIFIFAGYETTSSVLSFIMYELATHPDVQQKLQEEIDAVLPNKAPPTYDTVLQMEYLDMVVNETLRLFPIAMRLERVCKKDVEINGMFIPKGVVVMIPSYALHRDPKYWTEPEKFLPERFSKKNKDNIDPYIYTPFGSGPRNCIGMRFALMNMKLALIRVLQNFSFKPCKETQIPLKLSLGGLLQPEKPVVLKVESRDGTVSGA

[4] = HEp-2 cell cytotoxicity, dose response, cytotoxicity control for RSV inhibitor project, HTS (AID 2410); type: functional; conditions: human respiratory syncytial virus
[5] = Luminescence Cell-Based Dose Confirmation HTS to Identify Activators of 5'UTR Stem-Loop Driven Alpha-Synuclein mRNA Translation in H4 Neuroglioblastoma Cells. [Related pubchem assays: 1829 (Project Summary), 1814 (Primary HTS)]; type: functional
[6] = Luminescence Cell-Based Dose Response HTS to Identify Activators of Luciferase Translation or Activity in H4 […] Cells. [Related pubchem assays: 1829 (Project Summary), 1814 (Primary HTS)]; type: functional
H4 = assay: Luminescence Cell-Based Dose Response HTS to Identify Activators of 5'UTR Stem-Loop Driven Prion Protein mRNA Translation in H4 Neuroglioblastoma Cells. [Related pubchem assays: 1829 (Project Summary), 1814 (Primary HTS)]; type: functional; conditions: Homo sapiens
[7] = microbe, parasite or virus in culture; type: functional; conditions: Mycobacterium tuberculosis
Exodeoxyribonuclease V = target: T2, Exodeoxyribonuclease V (Escherichia coli (strain K12), UniProt P04993+P07648+P08394); assay: E. coli RecBCD inhibitors, dose response, counter-screen for AddAB inhibitor project, absorbance, V66 E. coli, mutant T4 phage (AID 492957); type: functional, cell-based, Escherichia coli str. K-12 substr. MG1655
T2 sequence (P04993 whole entry): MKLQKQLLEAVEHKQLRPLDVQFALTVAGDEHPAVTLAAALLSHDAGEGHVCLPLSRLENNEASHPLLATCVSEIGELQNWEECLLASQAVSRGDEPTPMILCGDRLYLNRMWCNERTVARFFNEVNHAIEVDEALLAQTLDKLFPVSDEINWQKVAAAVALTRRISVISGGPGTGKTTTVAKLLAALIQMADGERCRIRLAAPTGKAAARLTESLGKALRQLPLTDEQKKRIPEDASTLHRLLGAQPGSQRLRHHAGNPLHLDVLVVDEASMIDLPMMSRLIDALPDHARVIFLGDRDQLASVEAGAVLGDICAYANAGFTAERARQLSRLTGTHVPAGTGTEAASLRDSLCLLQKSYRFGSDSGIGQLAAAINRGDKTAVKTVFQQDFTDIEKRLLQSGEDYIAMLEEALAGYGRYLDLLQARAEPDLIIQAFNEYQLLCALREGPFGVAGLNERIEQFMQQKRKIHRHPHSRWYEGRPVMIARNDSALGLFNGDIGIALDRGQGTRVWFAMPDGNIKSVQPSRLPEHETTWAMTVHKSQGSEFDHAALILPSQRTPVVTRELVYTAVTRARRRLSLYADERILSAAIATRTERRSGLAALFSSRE
T2 sequence (P07648 whole entry): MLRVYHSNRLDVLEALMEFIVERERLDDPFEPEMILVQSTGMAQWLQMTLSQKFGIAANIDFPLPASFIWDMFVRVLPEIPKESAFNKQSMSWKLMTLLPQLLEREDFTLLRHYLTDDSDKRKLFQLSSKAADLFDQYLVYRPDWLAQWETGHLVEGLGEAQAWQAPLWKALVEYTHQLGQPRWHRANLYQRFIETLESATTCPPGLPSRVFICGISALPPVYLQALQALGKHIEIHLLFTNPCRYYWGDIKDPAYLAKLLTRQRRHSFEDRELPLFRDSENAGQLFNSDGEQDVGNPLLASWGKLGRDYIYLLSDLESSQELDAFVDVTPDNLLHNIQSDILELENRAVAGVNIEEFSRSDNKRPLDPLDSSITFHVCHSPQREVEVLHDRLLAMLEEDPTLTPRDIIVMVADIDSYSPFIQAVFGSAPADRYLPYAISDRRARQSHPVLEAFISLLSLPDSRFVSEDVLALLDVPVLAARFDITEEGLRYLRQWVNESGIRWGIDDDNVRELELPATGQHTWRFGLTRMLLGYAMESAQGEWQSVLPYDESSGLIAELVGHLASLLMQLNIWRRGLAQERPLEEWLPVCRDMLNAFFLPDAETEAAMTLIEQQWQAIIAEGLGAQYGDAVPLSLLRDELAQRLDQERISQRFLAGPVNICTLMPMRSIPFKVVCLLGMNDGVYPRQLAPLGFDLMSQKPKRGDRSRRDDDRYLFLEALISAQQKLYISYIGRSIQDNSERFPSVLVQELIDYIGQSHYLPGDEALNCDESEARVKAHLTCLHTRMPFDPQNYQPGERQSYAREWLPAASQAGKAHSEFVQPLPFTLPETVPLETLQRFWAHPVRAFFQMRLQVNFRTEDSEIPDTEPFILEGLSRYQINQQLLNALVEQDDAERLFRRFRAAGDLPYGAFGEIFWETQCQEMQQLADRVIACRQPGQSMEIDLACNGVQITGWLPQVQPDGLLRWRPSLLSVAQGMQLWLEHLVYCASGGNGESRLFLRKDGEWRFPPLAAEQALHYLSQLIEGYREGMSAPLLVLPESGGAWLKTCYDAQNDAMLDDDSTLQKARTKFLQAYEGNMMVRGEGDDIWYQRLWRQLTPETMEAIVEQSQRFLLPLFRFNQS
T2 sequence (P08394 whole entry): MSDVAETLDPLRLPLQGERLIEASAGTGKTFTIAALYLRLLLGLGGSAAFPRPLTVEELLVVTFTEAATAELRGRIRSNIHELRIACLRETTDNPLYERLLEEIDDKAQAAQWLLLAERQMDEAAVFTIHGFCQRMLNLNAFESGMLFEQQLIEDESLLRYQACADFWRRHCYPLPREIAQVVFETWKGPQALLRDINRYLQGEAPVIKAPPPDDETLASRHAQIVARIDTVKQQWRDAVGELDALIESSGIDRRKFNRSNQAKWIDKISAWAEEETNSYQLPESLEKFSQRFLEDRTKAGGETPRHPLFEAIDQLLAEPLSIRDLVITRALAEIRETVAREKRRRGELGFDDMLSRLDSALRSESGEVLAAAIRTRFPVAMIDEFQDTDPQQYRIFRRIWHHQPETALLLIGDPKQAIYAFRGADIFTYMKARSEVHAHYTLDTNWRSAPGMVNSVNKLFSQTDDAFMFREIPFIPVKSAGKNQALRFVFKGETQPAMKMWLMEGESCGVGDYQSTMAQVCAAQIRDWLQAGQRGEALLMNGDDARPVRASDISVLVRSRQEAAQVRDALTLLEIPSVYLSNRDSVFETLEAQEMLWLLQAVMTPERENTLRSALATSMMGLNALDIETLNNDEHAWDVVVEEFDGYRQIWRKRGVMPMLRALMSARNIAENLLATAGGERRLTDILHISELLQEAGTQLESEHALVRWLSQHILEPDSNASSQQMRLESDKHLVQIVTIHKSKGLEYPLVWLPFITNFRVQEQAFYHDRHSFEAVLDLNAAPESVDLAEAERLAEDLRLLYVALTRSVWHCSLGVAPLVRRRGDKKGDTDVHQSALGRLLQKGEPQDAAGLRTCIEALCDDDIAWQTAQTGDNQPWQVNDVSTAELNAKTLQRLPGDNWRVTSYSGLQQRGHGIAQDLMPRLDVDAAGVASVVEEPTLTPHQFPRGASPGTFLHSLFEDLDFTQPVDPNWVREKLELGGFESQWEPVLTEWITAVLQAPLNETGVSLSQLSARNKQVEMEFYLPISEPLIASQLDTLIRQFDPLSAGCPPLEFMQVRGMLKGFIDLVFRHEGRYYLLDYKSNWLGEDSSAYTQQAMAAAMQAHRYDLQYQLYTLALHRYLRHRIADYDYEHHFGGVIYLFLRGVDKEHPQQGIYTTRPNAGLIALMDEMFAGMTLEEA

[8] = Counterscreen for AddAB inhibitors: absorbance-based bacterial cell-based high throughput dose response assay for inhibitors of bacterial viability. [Related pubchem assays (depositor defined):AID435030, AID449728, AID449731, AID488942, AID488955, AID488956]; type: functional
[9] = THP-1 cell cytotoxicity, dose response, cytotoxicity control for non-replicating M. tuberculosis project (AID 489025); type: functional
[10] = target: T3, Microphthalmia-associated transcription factor (Homo sapiens, UniProt O75030); assay: TRPM1 promoter luciferase signal decrease, dose response, MITF inhibitor project, cell-based, SK-MEL-5, cherry-picked, set 3 (AID 493073); type: functional
T3 sequence (O75030 whole entry): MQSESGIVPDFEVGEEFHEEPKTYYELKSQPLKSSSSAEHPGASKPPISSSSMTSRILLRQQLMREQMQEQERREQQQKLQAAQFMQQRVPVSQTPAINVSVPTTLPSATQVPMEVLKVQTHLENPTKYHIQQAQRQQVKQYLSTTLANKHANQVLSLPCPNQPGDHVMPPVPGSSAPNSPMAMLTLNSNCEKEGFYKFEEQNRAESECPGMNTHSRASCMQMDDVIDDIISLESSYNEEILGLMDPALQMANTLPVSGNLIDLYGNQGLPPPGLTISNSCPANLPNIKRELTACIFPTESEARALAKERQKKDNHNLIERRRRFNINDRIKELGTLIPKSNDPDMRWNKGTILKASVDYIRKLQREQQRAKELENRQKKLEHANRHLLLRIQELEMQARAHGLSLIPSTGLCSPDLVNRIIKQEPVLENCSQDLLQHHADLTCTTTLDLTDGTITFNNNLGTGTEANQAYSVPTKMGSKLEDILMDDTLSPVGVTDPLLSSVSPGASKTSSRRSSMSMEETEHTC

cells = type: functional
Genome polyprotein = Genome polyprotein (dengue virus type 2, UniProt P29990); assay: Dengue-2 NS5 methyltransferase inhibitors, primary screen, biochemical, confirmation dose response (AID 588689); type: functional
Chain of Genome polyprotein (P29990 2492-3391 limits assumed): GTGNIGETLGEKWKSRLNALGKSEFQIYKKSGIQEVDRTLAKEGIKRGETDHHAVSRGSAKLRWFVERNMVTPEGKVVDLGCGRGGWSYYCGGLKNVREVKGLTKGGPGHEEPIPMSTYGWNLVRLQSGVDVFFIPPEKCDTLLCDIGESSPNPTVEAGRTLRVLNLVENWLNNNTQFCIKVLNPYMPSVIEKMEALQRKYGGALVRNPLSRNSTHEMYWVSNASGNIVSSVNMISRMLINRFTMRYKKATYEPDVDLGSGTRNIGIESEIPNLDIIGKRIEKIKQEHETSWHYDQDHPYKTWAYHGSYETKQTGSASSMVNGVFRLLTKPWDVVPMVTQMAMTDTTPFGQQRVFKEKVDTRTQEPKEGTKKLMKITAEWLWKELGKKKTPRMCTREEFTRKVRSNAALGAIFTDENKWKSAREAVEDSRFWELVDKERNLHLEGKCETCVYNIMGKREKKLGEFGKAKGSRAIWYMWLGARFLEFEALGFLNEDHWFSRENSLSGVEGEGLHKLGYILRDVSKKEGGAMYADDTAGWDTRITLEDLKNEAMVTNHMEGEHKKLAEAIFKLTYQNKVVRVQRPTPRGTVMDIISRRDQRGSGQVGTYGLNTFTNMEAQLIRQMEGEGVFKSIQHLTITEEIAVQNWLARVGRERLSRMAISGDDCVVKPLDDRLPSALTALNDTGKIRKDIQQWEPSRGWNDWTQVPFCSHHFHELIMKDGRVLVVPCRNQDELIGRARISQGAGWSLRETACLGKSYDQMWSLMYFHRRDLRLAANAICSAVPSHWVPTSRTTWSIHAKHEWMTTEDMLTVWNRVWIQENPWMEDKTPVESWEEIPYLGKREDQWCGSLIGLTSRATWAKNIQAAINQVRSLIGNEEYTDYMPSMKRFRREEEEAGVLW

Chain of UDP-galactopyranose mutase (P9WIQ1 whole entry): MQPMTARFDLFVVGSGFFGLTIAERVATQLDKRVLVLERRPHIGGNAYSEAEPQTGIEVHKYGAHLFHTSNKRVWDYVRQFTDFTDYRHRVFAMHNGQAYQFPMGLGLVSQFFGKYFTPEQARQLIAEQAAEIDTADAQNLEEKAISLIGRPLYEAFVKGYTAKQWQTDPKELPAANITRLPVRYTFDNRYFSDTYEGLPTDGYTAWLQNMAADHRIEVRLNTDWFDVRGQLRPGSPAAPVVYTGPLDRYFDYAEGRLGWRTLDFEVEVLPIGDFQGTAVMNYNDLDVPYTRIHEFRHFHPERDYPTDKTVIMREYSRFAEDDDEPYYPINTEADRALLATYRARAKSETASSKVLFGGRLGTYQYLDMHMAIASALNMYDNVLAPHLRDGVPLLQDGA

Compound: CCN1C(=O)NC(=O)/C(=C\c2cn(CC(=O)N3CCCC3)c3ccccc23)C1=O
- AC50 [1]: 107 µM (active)

Compound: Cc1cc(C)c(C)c(S(=O)(=O)N2CCN(C)CC2)c1C
- IC50 (HEK293): > 67.5 µM (inactive)
- IC50 [2]: > 67.5 µM (inactive)

Compound: CCS(=O)(=O)N1CCN(c2ccc([N+](=O)[O-])c(NC(C)c3ccccc3)c2)CC1 (configuration not stated)
- IC50 [3]: > 80 µM (inactive)

Compound: N#Cc1sc2nc(-c3cccs3)cc(-c3ccc(Cl)cc3)c2c1N
- AC50 (Cytochrome P450 2C19): 3.98 µM (inconclusive)
- IC50 (CHO): > 49.7 µM (inactive)
- IC50 (Beta Lactamase): 4.74 µM (active)
- AC50 (Cytochrome P450 3A4): 1.41 µM (inconclusive)

Compound: COc1ccccc1NC(=O)CCC(=O)N/N=C(/C)c1ccc(C)cc1
- IC50 (HEK293): 46.9 µM (inactive)
- IC50 [2]: > 67.5 µM (inactive)

Compound: Clc1ccccc1-c1nnc(-c2cccs2)o1
- IC50 (HEK293): > 67.5 µM (inactive)
- IC50 [2]: > 67.5 µM (inactive)

Compound: O=Nc1c2[nH]c3ccccc3[n+]([O-])c-2c2ccccc12
- CC50 [4]: 34.2 µM (active)
- EC50 [5]: 15.7 µM (active)
- EC50 [6]: 8.47 µM (active)
- EC50 (H4): 12.5 µM (inconclusive)
- CC50 [7]: > 40 µM (active)
- IC50 (Exodeoxyribonuclease V): > 119 µM (inactive)
- IC50 [8]: > 119 µM (inactive)

Compound: O=C(OCCN1C(=O)c2cccc3c(N4CCOCC4)ccc(c23)C1=O)c1cccc(Cl)c1
- AC50 [1]: 19.2 µM (active)

Compound: Cc1cc(C(=O)N/N=C/c2ccc([N+](=O)[O-])o2)c(C)o1
- IC50 (Exodeoxyribonuclease V): > 119 µM (inactive)
- CC50 [9]: 38.9 µM (active)
- IC50 [8]: > 119 µM (inactive)
- AC50 [10]: 4.79 µM (active)
- IC50 (cells): 1.89 µM (active)

Compound: Cc1cc(O)c(C(C)C)cc1N=Cc1ccc(N(C)C)cc1
- IC50 [3]: 23.9 µM (inactive)
- IC50 (Genome polyprotein): > 100 µM (active)
